What was measured:
anesthetized dogs = assay: Evaluation of cardiovascular dynamics and electrocardiogram in anesthetized dogs; assay type: in vivo, dog; settings: single administration; for HR / LVdP/dt / PQ interval / QRS interval / QTc interval / mAP: percent change vs value prior to administration; for effects on the cardiovascular system: summary of Tables 4 to 8
Description: <Evaluation of Cardiovascular Dynamics and Electrocardiogram in Anesthetized Dogs> Method Anesthetized dogs were used for the experiment. After isolating the […], a microchip pressure transducer catheter was inserted therein, and the tip was situated near the aortic orifice and in the left ventricle, for measurement of the arterial pressure (AP) and left ventricular pressure (LVP). The LVP was differentiated using a differentiation unit, and the maximum value of the first derivative of the left ventricular pressure ([…] used as the index of the […] contractility. The heart rate (HR) was measured using an instantaneous heart rate counter, with the LVP waveforms as the trigger. A needle electrode was fixed to the right anterior limb and left and right posterior limbs, and a standard II-lead electrocardiogram was taken. The parameters were recorded on a recording sheet. The test substance was administered through the venous catheter inserted in the femoral vein. Administration of Test Substance and Recording Single Administration: The test substance was administered through the catheter for 1 minute. The electrocardiogram was recorded at 2 minutes after administration, and the change in the cardiovascular dynamic was recorded continuously for 10 minutes after the administration. After 10 minutes, the dose was increased and the recording was repeated. Continuous Intravenous Infusion: The test substance was administered through the catheter for a period of one minute, and then a sustained dose was administered by continuous intravenous infusion. The electrocardiogram was recorded at the 5 and 10 minute points, and the change in cardiovascular dynamic was recorded continuously for 10 minutes from the start of administration. After 10 minutes, the dose was increased and the recording was repeated. Analysis The HR, mean arterial pressure (mAP), LVdP/dtmax and electrocardiogram parameters (RR interval, PQ interval, QRS interval, QT interval) were read from the recording sheet. The QT interval was heart rate-corrected and represented as the QTc interval.

sodium channels = assay type: cell-based; settings: read-out: IC50 (μM), sodium channel-inhibiting activity; rat fetal cultured hippocampal neurons, SBFI fluorescence in the presence of 4-aminopyridine, 5 minutes after addition, 1 μM tetrodotoxin = 100%
[1] = test system: left saphenous nerve of rats (ectopic firing); assay: Inhibition of ectopic firing; assay type: in vivo; settings: Rattus norvegicus, iv; rats with cut left saphenous nerve, urethane anesthesia, compound via catheter in right cervical vein, number of firings in 10 seconds; read-out: Inhibition of ectopic firing (ID50)
How it was run: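 Rat left saphenous nerve transected near the knee (~3 mm excised); recorded more than a week later under urethane (1 g/kg) anesthesia. Compound given via right cervical vein catheter. Ectopic firing recorded with platinum hook electrode, scored as number of firings in 10 seconds.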

| Compound | IC50 (sodium channels) [µM] | ED50 [1] [mg/kg] | further results |
| --- | --- | --- | --- |
| CN(C)CCC=C1c2ccccc2CCc2ccccc21 [Amitriptyline] | – | – | HR (anesthetized dogs; dose 0.3 mg/kg weight): −2.9%; LVdP/dt (anesthetized dogs; dose 0.3 mg/kg weight): −5.9%; PQ interval (anesthetized dogs; dose 0.3 mg/kg weight): −1.5%; QRS interval (anesthetized dogs; dose 0.3 mg/kg weight): 0.4%; QTc interval (anesthetized dogs; dose 0.3 mg/kg weight): 1.9%; mAP (anesthetized dogs; dose 0.3 mg/kg weight): −0.9%; HR (anesthetized dogs; dose 1 mg/kg weight): −4.0%; LVdP/dt (anesthetized dogs; dose 1 mg/kg weight): −21.7%; PQ interval (anesthetized dogs; dose 1 mg/kg weight): 8.7%; QRS interval (anesthetized dogs; dose 1 mg/kg weight): 15.4%; QTc interval (anesthetized dogs; dose 1 mg/kg weight): 13.1%; mAP (anesthetized dogs; dose 1 mg/kg weight): −25.4%; effects on the cardiovascular system (anesthetized dogs): exhibited effects on the cardiovascular system |
| CCN(CC)CCCN(c1ccccc1)C1Cc2ccccc2C1 [Aprindine] | – | – | HR (anesthetized dogs; dose 2 mg/kg weight): −12.8%; LVdP/dt (anesthetized dogs; dose 2 mg/kg weight): −29%; PQ interval (anesthetized dogs; dose 2 mg/kg weight): 14.2%; QTc interval (anesthetized dogs; dose 2 mg/kg weight): 4.5%; mAP (anesthetized dogs; dose 2 mg/kg weight): −34.7%; HR (anesthetized dogs; dose 4 mg/kg weight): −19.2%; LVdP/dt (anesthetized dogs; dose 4 mg/kg weight): −47.5%; QTc interval (anesthetized dogs; dose 4 mg/kg weight): −0.4%; PQ interval (anesthetized dogs): 36.8%; mAP (anesthetized dogs): −47.7%; effects on the cardiovascular system (anesthetized dogs): exhibited effects on the cardiovascular system |
| O=c1[nH]c2ccccc2nc1CN1CCC(COc2ccccc2F)CC1 [Example 204, 3-[4-(2-Fluorophenoxymethyl)piperidino]methyl-1H-quinoxalin-2-one] | 8.1 | 0.5 to 1 | – |
| COc1ccccc1OCC1CCN(Cc2nc3ccccc3[nH]c2=O)CC1 [Example 205, 3-[4-(2-Methoxyphenoxymethyl)piperidino]methyl-1H-quinoxalin-2-one] | 2.6 | 0.5 to 1 | – |
| O=C(Cc1ccccc1F)C1CCCN(Cc2ncc[nH]c2=O)C1 (centres unmarked) [Example 208, 3-[3-[2-(2-Fluorophenyl)acetyl]piperidino]methyl-1H-pyrazin-2-one] | 5.5 | 0.5 to 1 | – |
| Cc1ccccc1OCC1(O)CCN(Cc2ncc[nH]c2=O)CC1 [Example 210, 3-[4-Hydroxy-4-(2-methylphenoxymethyl)piperidino]methyl-1H-pyrazin-2-one] | 6 | 0.5 to 1 | – |
| Cc1ccc(-c2ccccc2)n1CC1(O)CCN(Cc2ncc[nH]c2=O)CC1 [Example 212, 3-[4-Hydroxy-4-(2-methyl-5-phenylpyrrol-1-yl)methyl-piperidino]methyl-1H-pyrazin-2-one] | 6.1 | 0.5 to 1 | – |
| O=C(c1ccccc1F)N(C(=O)c1ccccc1F)C1(O)CCN(Cc2ncc[nH]c2=O)CC1 [Example 214, 2-Fluoro-N-(2-fluorobenzoyl)-N-[4-hydroxy-1-(3-oxo-3,4-dihydro-2-pyrazinylmethyl)piperidin-4-yl]benzamide] | 8.7 | 0.5 to 1 | – |
| Cc1ccccc1CCC1(O)CCN(Cc2ncc[nH]c2=O)CC1 [Example 222, 3-[4-Hydroxy-4-[2-(2-methylphenyl)ethyl]piperidino]methyl-1H-pyrazin-2-one] | 2.5 | 0.5 to 1 | – |
| O=c1[nH]ccnc1CN1CCC(F)(COc2ccccc2F)CC1 [Example 223, 3-[4-Fluoro-4-(2-fluorophenoxymethyl)piperidino]methyl-1H-pyrazin-2-one] | 6 | 0.5 to 1 | – |
| O=c1[nH]ccnc1CN1CCC(CCc2ccccc2F)(COc2ccccc2F)CC1 [Example 224, 3-[4-(2-Fluorophenoxymethyl)-4-[2-(2-fluorophenyl)ethyl]piperidino]methyl-1H-pyrazin-2-one] | 1.6 | 0.5 to 1 | – |
| Cc1ccccc1OCC1(CCc2ccccc2F)CCN(Cc2ncc[nH]c2=O)CC1 [Example 225, 3-[4-[2-(2-Fluorophenyl)ethyl]-4-(2-methylphenoxymethyl)piperidino]methyl-1H-pyrazin-2-one] | 1.6 | 0.5 to 1 | – |
| O=c1cncc(CCN2CCC(COc3ccccc3Cl)CC2)[nH]1 [Example 235, 6-[2-[4-(2-Chlorophenoxymethyl)piperidino]ethyl]-1H-pyrazin-2-one] | 5 | < 0.5 | – |
| Cc1ccccc1OCC1CCN(CCc2cncc(=O)[nH]2)CC1 [Example 236, 6-[2-[4-(2-Methylphenoxymethyl)piperidino]ethyl]-1H-pyrazin-2-one] | 7 | < 0.5 | – |
| O=c1cncc(CCN2CCC(COc3ccc(F)cc3F)CC2)[nH]1 [Example 239, 6-[2-[4-(2,4-Difluorophenoxymethyl)piperidino]ethyl]-1H-pyrazin-2-one] | 9.1 | 0.5 to 1 | – |
| O=c1cncc(CCN2CCC(COc3cc(F)ccc3F)CC2)[nH]1 [Example 241, 6-[2-[4-(2,5-Difluorophenoxymethyl)piperidino]ethyl]-1H-pyrazin-2-one] | 5 | 0.5 to 1 | – |
| O=c1cncc(CCN2CCC(CCc3ccccc3F)CC2)[nH]1 [Example 243, 6-[2-[4-[2-(2-Fluorophenyl)ethyl]piperidino]ethyl]-1H-pyrazin-2-one] | 5.7 | < 0.5 | – |
| Cc1ccc(-c2ccccc2)n1CC1(O)CCN(Cc2ccc[nH]c2=O)CC1 [Example 251, 3-[4-Hydroxy-4-(2-methyl-5-phenylpyrrol-1-yl)methyl-piperidino]methyl-1H-pyridin-2-one] | 8.4 | 0.5 to 1 | – |
| O=c1[nH]cccc1CN1CCC(O)(COc2ccccc2F)CC1 [Example 253, 3-[4-Hydroxy-4-(2-fluorophenoxymethyl)piperidino]methyl-1H-pyridin-2-one] | 9.2 | < 0.5 | – |
| O=c1[nH]cc(Cl)cc1CN1CCC(O)(COc2ccccc2F)CC1 [Example 254, 5-Chloro-3-[4-hydroxy-4-(2-fluorophenoxymethyl)piperidino]methyl-1H-pyridin-2-one] | 8.9 | 0.5 to 1 | – |
| O=c1[nH]cccc1CN1CCC(CO)(CCc2ccccc2)CC1 [Example 256, 3-[4-Hydroxymethyl-4-(2-phenylethyl)piperidino]methyl-1H-pyridin-2-one] | 5.8 | 0.5 to 1 | – |
| O=c1[nH]cccc1CN1CCC(O)(C#Cc2ccccc2F)CC1 [Example 258, 3-[4-Hydroxy-4-[(2-fluorophenyl)ethynyl]piperidino]methyl-1H-pyridin-2-one] | 4.2 | < 0.5 | – |
| CSc1ccccc1CC(=O)C1CCN(Cc2ncc[nH]c2=O)CC1 [Example 343, 3-[4-[2-[2-(Methylthio)phenyl]acetyl]piperidino]methyl-1H-pyrazin-2-one] | 3.5 | < 0.5 | – |
| O=C(Cc1ccccc1C(F)(F)F)C1CCN(Cc2ncc[nH]c2=O)CC1 [Example 344, 3-[4-[2-[2-(Trifluoromethyl)phenyl]acetyl]piperidino]methyl-1H-pyrazin-2-one] | 4.4 | < 0.5 | – |
| CCOc1ccccc1CC(=O)C1CCN(Cc2ncc[nH]c2=O)CC1 [Example 347, 3-[4-[2-(2-Ethoxyphenyl)acetyl]piperidino]methyl-1H-pyrazin-2-one] | 3 | < 0.5 | – |
| CC(c1ncc[nH]c1=O)N1CCC(C(=O)Cc2ccccc2F)CC1 (centres unmarked) [Example 350, 3-[1-[4-[2-(2-Fluorophenyl)acetyl]piperidino]ethyl]-1H-pyrazin-2-one] | 6 | < 0.5 | – |
| CC1(C(=O)Cc2ccccc2F)CCN(Cc2ncc[nH]c2=O)CC1 [Example 365, 3-[4-[2-(2-Fluorophenyl)acetyl]-4-methylpiperidino]methyl-1H-pyrazin-2-one] | 3.4 | < 0.5 | – |
| CC1(C(=O)Cc2ccccc2C(F)(F)F)CCN(Cc2ncc[nH]c2=O)CC1 [Example 373, 3-[4-Methyl-4-[2-[2-(trifluoromethyl)phenyl]acetyl]piperidino]methyl-1H-pyrazin-2-one] | 1.6 | < 0.5 | – |
| O=C(Cc1c(F)cccc1C(F)(F)F)C1CCN(Cc2ncc[nH]c2=O)CC1 [Example 376, 3-[4-[2-[2-Fluoro-6-(trifluoromethyl)phenyl]acetyl]piperidino]methyl-1H-pyrazin-2-one] | 1.1 | < 0.5 | – |
| CC(c1ncc[nH]c1=O)N1CCC(C(=O)Cc2ccccc2C(F)(F)F)CC1.O=C(O)C(=O)O (centres unmarked) [Example 394, 3-[1-[4-[2-[2-(Trifluoromethyl)phenyl]acetyl]piperidino]ethyl]-1H-pyrazin-2-one oxalate] | 2.8 | < 0.5 | – |
